Measured values taken from ChEMBL document CHEMBL1154276, “Discovery of highly potent novel antifungal azoles by structure-based rational design” (2009).
Values after ≈ are worked out from the molar mass of the structure shown.

Experiments:
Format in all cases: functional
[1] = tested on: Candida albicans; experiment: Antifungal activity against Candida albicans by serial dilution method after 24 hrs
[2] = tested on: Candida tropicalis; experiment: Antifungal activity against Candida tropicalis by serial dilution method after 24 hrs
[3] = tested on: Cryptococcus neoformans; experiment: Antifungal activity against Cryptococcus neoformans by serial dilution method after 72 hrs
[4] = tested on: Trichophyton rubrum; experiment: Antifungal activity against Trichophyton rubrum by serial dilution method after 7 days; conditions: 168 h
[5] = tested on: Aspergillus fumigatus; experiment: Antifungal activity against Aspergillus fumigatus by serial dilution method after 7 days; conditions: 168 h
[6] = tested on: Nannizzia gypsea; experiment: Antifungal activity against Microsporum gypseum by serial dilution method […]
[7] = tested on: Cryptococcus neoformans; experiment: Selectivity ratio of compound MIC80 to voriconazole MIC80 for Cryptococcus neoformans

| Compound | MIC80 [1] [µg/mL] | MIC80 [2] [µg/mL] | MIC80 [3] [µg/mL] | MIC80 [4] [µg/mL] | MIC80 [5] [µg/mL] | MIC80 [6] [µg/mL] | Selectivity ratio [7] |
| --- | --- | --- | --- | --- | --- | --- | --- |
| CN(CCCCOc1ccccc1Br)CC(O)(Cn1cncn1)c1ccc(F)cc1F (centres undefined) | 0.0156 (≈ 0.0315 µM) | 0.0156 (≈ 0.0315 µM) | 0.004 (≈ 0.00807 µM) | 0.0625 (≈ 0.126 µM) | > 64 | 0.0625 (≈ 0.126 µM) | 4 |
| Cc1ccc(OCCCCN(C)CC(O)(Cn2cncn2)c2ccc(F)cc2F)cc1 (centres undefined) | 0.0156 (≈ 0.0362 µM) | 0.004 (≈ 0.00929 µM) | 0.0625 (≈ 0.145 µM) | 0.0156 (≈ 0.0362 µM) | 16 (≈ 37.2 µM) | 0.0625 (≈ 0.145 µM) |  |
| Cc1ccccc1OCCCCN(C)CC(O)(Cn1cncn1)c1ccc(F)cc1F (centres undefined) | 0.0625 (≈ 0.145 µM) | 0.0156 (≈ 0.0362 µM) | 0.0156 (≈ 0.0362 µM) | 0.0625 (≈ 0.145 µM) | > 64 | 0.0625 (≈ 0.145 µM) |  |
| CN(CCCCOc1ccc(F)cc1)CC(O)(Cn1cncn1)c1ccc(F)cc1F (centres undefined) | 0.0156 (≈ 0.0359 µM) | 0.004 (≈ 0.00921 µM) | 0.0625 (≈ 0.144 µM) | 0.0156 (≈ 0.0359 µM) | 16 (≈ 36.8 µM) | 0.0625 (≈ 0.144 µM) |  |
| CN(CCCCOc1ccc(Cl)cc1)CC(O)(Cn1cncn1)c1ccc(F)cc1F (centres undefined) | 0.001 (≈ 0.00222 µM) | 0.001 (≈ 0.00222 µM) | 0.0156 (≈ 0.0346 µM) | 0.0625 (≈ 0.139 µM) | 4 (≈ 8.87 µM) | 0.0156 (≈ 0.0346 µM) |  |
| CN(CCCCOc1ccccc1Cl)CC(O)(Cn1cncn1)c1ccc(F)cc1F (centres undefined) | 0.0156 (≈ 0.0346 µM) | 0.0156 (≈ 0.0346 µM) | 0.0156 (≈ 0.0346 µM) | 0.0625 (≈ 0.139 µM) | > 64 | 0.0625 (≈ 0.139 µM) |  |
| CN(CCCCOc1ccc(C(C)(C)C)cc1)CC(O)(Cn1cncn1)c1ccc(F)cc1F (centres undefined) | 0.0625 (≈ 0.132 µM) | 0.0625 (≈ 0.132 µM) | 0.25 (≈ 0.529 µM) | 0.0625 (≈ 0.132 µM) | > 64 | 0.0625 (≈ 0.132 µM) |  |
| Cc1cccc(OCCCCN(C)CC(O)(Cn2cncn2)c2ccc(F)cc2F)c1 (centres undefined) | 0.0156 (≈ 0.0362 µM) | 0.0156 (≈ 0.0362 µM) | 0.0625 (≈ 0.145 µM) | 0.0625 (≈ 0.145 µM) | 64 (≈ 149 µM) | 0.0625 (≈ 0.145 µM) |  |
| CN(CCCCOc1cccc(N)c1)CC(O)(Cn1cncn1)c1ccc(F)cc1F (centres undefined) | 0.0156 (≈ 0.0362 µM) | 0.0156 (≈ 0.0362 µM) | 0.25 (≈ 0.579 µM) | 0.25 (≈ 0.579 µM) | > 64 | 0.0625 (≈ 0.145 µM) |  |
| CN(CCCCOc1ccc(OCc2ccccc2)cc1)CC(O)(Cn1cncn1)c1ccc(F)cc1F (centres undefined) | 0.0156 (≈ 0.0299 µM) | 0.0156 (≈ 0.0299 µM) | 0.0156 (≈ 0.0299 µM) | 0.0625 (≈ 0.12 µM) | 32 (≈ 61.2 µM) | 0.0156 (≈ 0.0299 µM) |  |
| COc1ccc(OCCCCN(C)CC(O)(Cn2cncn2)c2ccc(F)cc2F)cc1 (centres undefined) | 0.0156 (≈ 0.0349 µM) | 0.004 (≈ 0.00896 µM) | 0.0625 (≈ 0.14 µM) | 0.0156 (≈ 0.0349 µM) | 16 (≈ 35.8 µM) | 0.0625 (≈ 0.14 µM) |  |
| CN(CCCCOc1ccc(Br)cc1)CC(O)(Cn1cncn1)c1ccc(F)cc1F (centres undefined) | 0.001 (≈ 0.00202 µM) | 0.001 (≈ 0.00202 µM) | 0.004 (≈ 0.00807 µM) | 0.0156 (≈ 0.0315 µM) | 4 (≈ 8.07 µM) | 0.0156 (≈ 0.0315 µM) | 4 |
| CN(CCCCOc1cccc(Br)c1)CC(O)(Cn1cncn1)c1ccc(F)cc1F (centres undefined) | 0.0625 (≈ 0.126 µM) | 0.001 (≈ 0.00202 µM) | 0.0625 (≈ 0.126 µM) | 0.0625 (≈ 0.126 µM) | 64 (≈ 129 µM) | 0.0156 (≈ 0.0315 µM) |  |
| CN(CCCCOc1cccc([N+](=O)[O-])c1)CC(O)(Cn1cncn1)c1ccc(F)cc1F (centres undefined) | 0.0156 (≈ 0.0338 µM) | 0.004 (≈ 0.00867 µM) | 0.0625 (≈ 0.135 µM) | 0.0625 (≈ 0.135 µM) | 64 (≈ 139 µM) | 0.0625 (≈ 0.135 µM) |  |
| CN(CCCCOc1ccccc1[N+](=O)[O-])CC(O)(Cn1cncn1)c1ccc(F)cc1F (centres undefined) | 0.0625 (≈ 0.135 µM) | 0.0625 (≈ 0.135 µM) | 0.25 (≈ 0.542 µM) | 0.0625 (≈ 0.135 µM) | > 64 | 0.0625 (≈ 0.135 µM) |  |
| CN(CCCCOc1ccc(N)cc1)CC(O)(Cn1cncn1)c1ccc(F)cc1F (centres undefined) | 0.0625 (≈ 0.145 µM) | 0.0156 (≈ 0.0362 µM) | 0.25 (≈ 0.579 µM) | 1 (≈ 2.32 µM) | > 64 | 0.25 (≈ 0.579 µM) |  |
| CN(CCCCOc1ccc(OC(F)(F)F)cc1)CC(O)(Cn1cncn1)c1ccc(F)cc1F (centres undefined) | 0.0156 (≈ 0.0312 µM) | 0.004 (≈ 0.00799 µM) | 0.0625 (≈ 0.125 µM) | 0.0156 (≈ 0.0312 µM) | > 64 | 0.0625 (≈ 0.125 µM) |  |
| CN(CCCCOc1ccc([N+](=O)[O-])cc1)CC(O)(Cn1cncn1)c1ccc(F)cc1F (centres undefined) | 0.001 (≈ 0.00217 µM) | 0.004 (≈ 0.00867 µM) | 0.0156 (≈ 0.0338 µM) | 0.0625 (≈ 0.135 µM) | 64 (≈ 139 µM) | 0.0156 (≈ 0.0338 µM) |  |
| CN(CCCCOc1ccccc1N)CC(O)(Cn1cncn1)c1ccc(F)cc1F (centres undefined) | 0.0625 (≈ 0.145 µM) | 0.0156 (≈ 0.0362 µM) | 1 (≈ 2.32 µM) | 1 (≈ 2.32 µM) | > 64 | 0.25 (≈ 0.579 µM) |  |
| OC(Cn1cncn1)(Cn1cncn1)c1ccc(F)cc1F [FLUCONAZOLE] | 0.25 (≈ 0.816 µM) | 1 (≈ 3.27 µM) | 1 (≈ 3.27 µM) | 0.25 (≈ 0.816 µM) | > 64 | 1 (≈ 3.27 µM) |  |
| CCC(C)n1ncn(-c2ccc(N3CCN(c4ccc(OCC5COC(Cn6cncn6)(c6ccc(Cl)cc6Cl)O5)cc4)CC3)cc2)c1=O (centres undefined) [ITRACONAZOLE] | 0.125 (≈ 0.177 µM) | 0.0156 (≈ 0.0221 µM) | 0.5 (≈ 0.709 µM) | 0.125 (≈ 0.177 µM) | 2 (≈ 2.83 µM) | 0.125 (≈ 0.177 µM) |  |
| C[C@@H](c1ncncc1F)[C@](O)(Cn1cncn1)c1ccc(F)cc1F [VORICONAZOLE] | 0.0156 (≈ 0.0447 µM) | 0.001 (≈ 0.00286 µM) | 0.0156 (≈ 0.0447 µM) | 0.0156 (≈ 0.0447 µM) | 0.25 (≈ 0.716 µM) | 0.0156 (≈ 0.0447 µM) |  |
